Data from ChEMBL document CHEMBL1145349, “Discovery of 3-hydroxy-4-carboxyalkylamidino-5-arylamino-isothiazoles as potent MEK1 inhibitors” (Bioorg Med Chem Lett, 2006).

Biological target: Dual specificity mitogen-activated protein kinase kinase 1 (Homo sapiens, UniProt Q02750)
Experiment: Inhibition of MEK1

Dual specificity mitogen-activated protein kinase kinase 1, sequence (Q02750 whole entry): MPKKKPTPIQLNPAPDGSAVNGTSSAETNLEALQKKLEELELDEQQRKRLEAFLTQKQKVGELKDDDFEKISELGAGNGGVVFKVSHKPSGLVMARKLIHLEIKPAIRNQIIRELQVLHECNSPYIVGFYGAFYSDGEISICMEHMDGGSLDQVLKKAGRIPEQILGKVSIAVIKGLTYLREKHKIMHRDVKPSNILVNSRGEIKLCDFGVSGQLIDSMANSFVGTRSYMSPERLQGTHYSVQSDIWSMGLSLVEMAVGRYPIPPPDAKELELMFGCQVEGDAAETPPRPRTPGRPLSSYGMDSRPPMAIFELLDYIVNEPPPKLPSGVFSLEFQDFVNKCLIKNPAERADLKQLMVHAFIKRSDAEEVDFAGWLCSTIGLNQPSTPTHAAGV

SMILES	IC50 [µM]
COc1ccc(Nc2snc(O)c2C#N)cc1	> 5
CC(Nc1snc(O)c1C#N)c1ccccc1 (configuration not stated)	> 5
N#Cc1c(O)nsc1Oc1ccc(Oc2ccccc2)cc1	> 5
N#Cc1c(O)nsc1Nc1cccnc1	> 5
N#Cc1c(O)nsc1N1CCCCC1	> 5
COc1cccc(Nc2snc(O)c2C#N)c1	> 5
CC(C)Nc1snc(O)c1C#N	> 5
COC(=O)c1cccc(Nc2s[nH]c(=O)c2C#N)c1	> 5
Cn1sc(Nc2ccccc2)c(C#N)c1=O	> 5
Cc1ccc(Nc2snc(O)c2C(=N)NN2CCCCC2)cc1	> 2
N#Cc1c(O)nsc1Nc1ccc(Cl)cc1	0.41
COCCCNc1snc(O)c1C#N	> 5
Cc1ccc(Nc2snc(O)c2/C(N)=N/O)cc1	> 2
N#Cc1c(O)nsc1Nc1ccc([N+](=O)[O-])cc1	> 5
N#Cc1ccc(Nc2s[nH]c(=O)c2C#N)cc1	> 5
N#Cc1c(O)nsc1Nc1cccc([N+](=O)[O-])c1	> 5

SMILES	IC50 [µM]
N#Cc1c(O)nsc1NCCc1cccs1	> 5
N#Cc1c(O)nsc1Nc1ccccc1[N+](=O)[O-]	> 5
COc1nsc(Nc2ccccc2)c1C#N	> 5
Cc1ccccc1Nc1snc(O)c1C#N	> 5
Cc1cccc(Nc2s[nH]c(=O)c2C#N)c1	> 5
N#Cc1c(O)nsc1NCCc1ccc(O)cc1	> 5
COc1ccccc1Nc1snc(O)c1C#N	> 5
N#Cc1c(O)nsc1NCCc1ccccc1	> 5
N#Cc1c(O)nsc1Nc1ccccc1	7
N#Cc1c(O)nsc1Nc1ccccc1C(F)(F)F	> 5
CC(C)c1ccc(Sc2snc(O)c2C#N)cc1	> 5
N#Cc1c(O)nsc1NCCCN1CCOCC1	> 5
N#Cc1c(NCC2CCCCC2)s[nH]c1=O	> 5
COc1cc(Nc2snc(O)c2-c2nn[nH]n2)cc(OC)c1	> 2
CCCCNc1snc(O)c1C#N	> 5
Cc1ccc(Nc2snc(O)c2C#N)cc1	> 5
